According to patent publication US20210395327A1, “Growth Hormone-Releasing Hormone Antagonists and Uses Thereof” (United States Government As Represented By The Department …, priority 2019, published 2021):
Read-outs that look alike come from different tables or passages of the source. Non-standard residues stand in square brackets, D forms with d. Residues, ends and D or L forms follow the SMILES beside them. *: point of attachment. Phenylacetyl(2,3,4,5,6-F5) = O=C(Cc1c(F)c(F)c(F)c(F)c1F)*; Phe(4-Cl) = N[C@@H](Cc1ccc(Cl)cc1)C(=O)O; hArg = N=C(N)NCCCC[C@H](N)C(=O)O; 12Ado = NCCCCCCCCCCCC(=O)O; Nle = CCCC[C@H](N)C(=O)O; Orn = NCCC[C@H](N)C(=O)O; Abu = CC[C@H](N)C(=O)O; PhAc = O=C(Cc1ccccc1)*

Key:
HCC827 lung cancer cells = experiment: In vitro cell viability, HCC827; assay type: cell-based, human; details: antagonist 5 μM for 72 h, cell proliferation assay; MIA602 = 1
Procedure: (§1) The inhibitory effects of the various synthesized GHRH antagonists were tested in cell proliferation assays in various human cancer cell lines including stomach cancer (KATOIII, N87), colon cancer (HT-29), urothelial cancer (J82, RT4), pancreatic cancer (PANC-1, CFPAC-1), prostatic cancer (PC3), breast cancer (MX-1, HCC1806), ovarian cancer (SK-OV-3, OVCAR-3) and lung cancer (HCC827, H460).
(§2) Cell culture. Human cancer cell lines including pancreatic (PANC-1 and CFPAC-1), lung (HCC827 and H460), stomach (NCI-N87 and KATOIII), urothelial (J82, RT4), prostatic (PC3), breast (MX-1 and HCC 1806), colorectal (HT-29), and ovarian (SK-OV-3 and OVCAR-3) were obtained from the American Type Culture Collection (ATCC) and cultured at 37° C. in a humidified 95% air/5% CO2 atmosphere in the medium recommended by ATCC.
(§3) In vitro cell viability. Cell viability was analyzed as follows: cancer cells including pancreatic (PANC-1 and CFPAC-1), lung (HCC827 and H460), stomach (NCI-N87 and KATOIII), urothelial (J82, RT4), prostatic (PC3) and breast (MX-1 and HCC 1806), colorectal (HT-29) and ovarian (SK-OV-3 and OVCAR-3) were grown on 96 well plates to ˜60% confluence, the cells were starved for 24 h in culture medium containing 0.5% FBS. Cells were then treated with GHRH antagonists MIA602 AVR compounds at concentrations of 1, 2.5 or 5 μM, or vehicle (0.1% DMSO) in quintuplicates for 72 hours. The medium was replaced every 48 hours. Cell viability was measured using CellTiter 96 aqueous one solution kit (Promega). Inhibitory effects of tested AVR compounds in comparison to that of MIA602 are presented as inhibitory potency.
(§4) Inhibitory effects of selected AVR compounds in comparison to that of MIA602 are presented as inhibitory potency (e.g., percentage of inhibition). […] The cell lines tested including lung cancer HCC827 (FIG. 2A), pancreatic cancer CFPAC-1 (FIG. 2B), stomach cancer N87 (FIG. 2C), colon cancer HT-29 (FIG. 2D), breast cancers MX-1 and HCC1806 (FIGS. 2 E, F). Based on the results of cell proliferation assay after cancer cells were treated with antagonist at concentration of 5 μM for 72H, the relative inhibitory potency of AVR antagonists in comparison to MIA-602 is summarized in Table 3 A and B. Over 60 AVR compounds were tested in 12 cancer cell lines.
(§5) Based on the results of cell proliferation assay after cancer cells were treated with antagonist at concentration of 5 µM for 72H, * at concentration of 2 µM for 72 H.

[1] = tested on: KATOIII stomach cancer cells; experiment: In vitro cell viability, KATOIII; assay type: cell-based, human; details: antagonist 5 μM for 72 h, cell proliferation assay; MIA602 = 1
Procedure: as §1, §2, §3, §4

[2] = target: T1, membrane GHRH-receptors on human anterior pituitary cells (Homo sapiens, UniProt Q02643); experiment: Receptor binding, displacement of 125I-[His1,Nle27]-hGH-RH(1-32)NH2 on human pituitary membranes
T1 construct: Human pituitary was purchased from the National Hormone and Peptide Program; tissue National Hormone and Peptide Program; host or cells: human pituitary (membrane fractions)
T1 sequence (Q02643 23-423): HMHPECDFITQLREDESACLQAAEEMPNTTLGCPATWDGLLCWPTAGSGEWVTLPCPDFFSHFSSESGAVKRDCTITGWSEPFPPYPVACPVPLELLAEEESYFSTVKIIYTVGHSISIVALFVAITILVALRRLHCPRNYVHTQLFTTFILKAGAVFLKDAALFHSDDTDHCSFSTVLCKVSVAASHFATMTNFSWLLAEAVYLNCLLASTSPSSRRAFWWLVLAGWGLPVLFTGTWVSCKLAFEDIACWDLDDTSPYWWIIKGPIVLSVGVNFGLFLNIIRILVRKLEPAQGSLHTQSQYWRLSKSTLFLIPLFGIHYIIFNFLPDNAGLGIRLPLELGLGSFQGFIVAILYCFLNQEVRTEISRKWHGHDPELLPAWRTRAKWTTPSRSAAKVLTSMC
Procedure: Receptor binding affinities in vitro. Preparation of human pituitary membrane fractions and receptor binding of analogs of GH-RH were performed (Halmos G, Rekasi Z, Szoke B, Schally A V. (1993) Receptor 3:87-97). Human pituitary was purchased from the National Hormone and Peptide Program. […] Relative affinities compared to hGH-RH(1-29)NH2 were calculated as the ratio of IC50 (dose causing 50% inhibition of specific binding to receptors) of the tested peptides to the IC50 of hGH-RH(1-29)NH2. The values were calculated from technical duplicate tubes.
Nineteen new AVR analogs of GHRH were tested in the receptor binding assay. Table 6 presents the IC50 values of GHRH antagonists to membrane GHRH-receptors binding on human anterior pituitary cells.

[3] = tested on: CFPAC-1 pancreatic cancer cells; experiment: In vitro cell viability, CFPAC-1; assay type: cell-based, human; details: antagonist 5 μM for 72 h, cell proliferation assay; MIA602 = 1
Procedure: as §1, §2, §3, §4, §5

| Compound | relative inhibitory potency in comparison to MIA-602, Lung IICC827 (HCC827 lung cancer cells) | relative inhibitory potency in comparison to MIA-602, Stomach KATOIII [1] | IC50 [2] [nM] | relative inhibitory potency in comparison to MIA-602, Pancreatic CFPAC-1 [3] | IC50 ([2]; membrane receptors on human anterior pituitary cells, mean of two to three determinations, read-out: IC50) [nM] |
| --- | --- | --- | --- | --- | --- |
| CCCC[C@H](NC(=O)[C@@H](NC(=O)[C@H](CC(=O)O)NC(=O)[C@H](CCC(N)=O)NC(=O)[C@H](CC(C)C)NC(=O)[C@H](CC(C)C)NC(=O)[C@H](CCCCN)NC(=O)[C@H](CCCNC(=N)N)NC(=O)[C@H](C)NC(=O)[C@H](CO)NC(=O)[C@H](CC(C)C)NC(=O)[C@H](CCC(N)=O)NC(=O)[C@H](CC)NC(=O)[C@H](CC(C)C)NC(=O)[C@@H](NC(=O)[C@H](CCCCN)NC(=O)[C@H](CCCNC(=N)N)NC(=O)[C@H](Cc1ccc(OC)cc1)NC(=O)[C@H](CCCNC(=N)N)NC(=O)[C@H](CC(N)=O)NC(=O)[C@@H](NC(=O)[C@H](Cc1ccc(Cl)cc1)NC(=O)[C@@H](NC(=O)[C@H](C)NC(=O)[C@H](CC(=O)O)NC(=O)[C@@H](CCCNC(=N)N)NC(=O)[C@H](Cc1ccc(O)cc1)NC(=O)CCCCCCCCCCCNC(=O)Cc1ccccc1)[C@@H](C)CC)[C@@H](C)O)C(C)C)[C@@H](C)CC)C(=O)N[C@H](CCCNC(=N)N)C(=O)N[C@@H](CCCCNC(=N)N)C(=O)NC [AVR-234, PhAC-Ada-Tyr-DArg-Asp-Ala-Ile-Cpa-Thr-Asn-Arg-Tyr(Me)-Arg-Lys-Val-Leu-Abu-Gln-Leu-Ser-Ala-Arg-Lys-Leu-Leu-Gln-Asp-Ile-Nle-DArg-Har-NHCH3] ({PhAc-12Ado}-Y[dR]DAI[Phe(4-Cl)]TNRY(Me)RKVL[Abu]QLSARKLLQDI[Nle][dR][hArg]-NHMe) | 4.510 | 1.709 | 0.45 | 2.205 |  |
| CCCC[C@H](NC(=O)[C@@H](NC(=O)[C@H](CC(=O)O)NC(=O)[C@H](CCC(N)=O)NC(=O)[C@H](CC(C)C)NC(=O)[C@H](CC(C)C)NC(=O)[C@H](CCCN)NC(=O)[C@H](Cc1c[nH]cn1)NC(=O)[C@H](C)NC(=O)[C@H](CO)NC(=O)[C@H](CC(C)C)NC(=O)[C@H](CCC(N)=O)NC(=O)[C@H](CC)NC(=O)[C@H](CC(C)C)NC(=O)[C@@H](NC(=O)[C@H](CCCCN)NC(=O)[C@H](CCCNC(=N)N)NC(=O)[C@H](Cc1ccc(OC)cc1)NC(=O)[C@H](CCCNC(=N)N)NC(=O)[C@H](CC(N)=O)NC(=O)[C@@H](NC(=O)[C@H](Cc1ccc(Cl)cc1)NC(=O)[C@@H](NC(=O)[C@H](C)NC(=O)[C@H](CC(=O)O)NC(=O)[C@@H](CCCNC(=N)N)NC(=O)[C@H](Cc1ccc(O)cc1)NC(=O)CCCCCCCCCCCNC(=O)Cc1c(F)c(F)c(F)c(F)c1F)[C@@H](C)CC)[C@@H](C)O)C(C)C)[C@@H](C)CC)C(=O)N[C@H](CCCNC(=N)N)C(=O)N[C@@H](CCCCNC(=N)N)C(=O)NCCCCCCCCCCCC(N)=O [AVR-620, 5FPhAC-Ada-Tyr-DArg-Asp-Ala-Ile-Cpa-Thr-Asn-Arg-Tyr(Me)-Arg-Lys-Val-Leu-Abu-Gln-Leu-Ser-Ala-His-Orn-Leu-Leu-Gln-Asp-Ile-Nle-DArg-Har-Ada-NH2] ({Phenylacetyl(2,3,4,5,6-F5)-12Ado}-Y[dR]DAI[Phe(4-Cl)]TNRY(Me)RKVL[Abu]QLSAH[Orn]LLQDI[Nle][dR][hArg][12Ado]-NH2) | 3.753 | 1.769 |  | 1.567 | 0.31 |
